Source: patent publication US8268889B2, “Treatment of ovarian cancer” (Ramot at Tel-Aviv University Ltd., priority 2006, dated 2012)

How the values were obtained:
OVCAR-3 cells [1] = assay: cells; format: cell-based
Method: The human epithelial ovarian cell line OVCAR-3 was obtained from the American Tissue Culture Collection. Cells were routinely grown in Roswell Park Memorial Institute 1640 medium containing 10% fetal calf serum, 0.1 mM nonessential amino acids, and 2 mM L-glutamine, at 37° C. in a humidified atmosphere of 95% air/5% CO2. To examine the effect of FTS on the anchorage-dependent cell growth, cells were plated at a density of 10×10^4 cells per well in 24-well plates to which either 0.1% DMSO (control) or the test concentrations of FTS were added after 24 h. […] Cells were stained with 3-(4,5-dimethylthiosol-2-yl)-2,5-diphenyltetrazolium bromide (MTT, Sigma Chemical Co., St. Louis, Mo.), incubated for 90 min, and dissolved in 0.3 mL of 100% DMSO. The extent of staining was determined spectrophotometrically (A570, A630) using an enzyme-linked immunosorbent assay reader. All assays were carried out in quadruplicate samples and were repeated three times.
Anchorage-dependent cell growth was examined in cells that were grown in the presence of FTS.

OVCAR-3 cells [2] = assay: cells; format: cell-based; conditions: Homo sapiens, 50 μM FTS alone, read-out: inhibition of cell growth
Method: OVCAR-3 cells were plated at a density of 10×10^4 cells per well in 24-well plates and grown for 3 days in the presence of 50 μM FTS. […] This protocol was chosen in order to induce only a small cytotoxic effect, thus enabling a determination of any possible enhanced effect with the Ras inhibitor. The number of live cells was evaluated 3 days later by MTT, as described earlier.
Thus, the greater than additive effect of these two drugs was manifested in an additional decrease of 35% in cell number, which was accounted for by death of the cells.

Ras = assay: Determination of total Ras by Western immunoblotting with pan anti-Ras antibody; format: cell-based, human; conditions: OVCAR-3 cells; for reduction in Ras: 24 h
Method: (§1) OVCAR-3 cells were plated at a density of 1.5×10^6 cells in 10-cm plates and grown for 24 h in the presence of 25 or 50 μM FTS. The cells were lysed in 0.5 mL of the Ras-binding domain of Raf-1 (RBD) lysis buffer [Herrmann, C., Martin, G. A. and Wittinghofer, A., J Biol Chem 270:2901-05 (1995)] containing 0.1 mM orthovanadate. Lysates containing 50 μg protein were used to determine total Ras by Western immunoblotting with pan anti-Ras antibody (Ab) and lysates containing 1500 μg protein to determine Ras-GTP by the glutathione S-transferase RBD pull-down assay followed by Western immunoblotting with pan anti-Ras Ab and enhanced chemiluminescence, as previously described [Fridman, M., Maruta, H. and Gonez, J., J Biol Chem 275:30363-71 (2000)]. Mouse anti β-tubulin Ab (AK-15, Sigma) was used at a dilution of 1:500 to confirm equal protein loading.
(§2) In view of the finding that OVCAR-3 cells expressed significant amounts of Ras and active Ras-GTP (FIGS. 1a and b), Applicants examined whether the Ras antagonist FTS would affect the amounts of Ras and Ras-GTP in these cells in the same way as it affects active Ras in other cell lines [Marom, M., supra.; Elad, G., Paz, A., Haklai, R., Marciano, D., Cox, A., Kloog, Y. Biomed Biochim Acta 8:1452:228-42 (1999); Weisz, B., Giehl, K., Gana-Weisz, M. et al. Oncogene 18:2579-88 (1999)]. The cells were grown for 24 h in serum containing medium with or without 25 or 50 μM FTS. Similar conditions were used in earlier studies with other cell lines [Elad, supra.; Weisz, supra.]. […] Quantitative analysis of the immunoblots disclosed that FTS, at concentrations of 25 and 50 μM, caused significant reductions of 5% and 39%, respectively, in Ras and 19% and 41%, respectively, in Ras-GTP (FIG. 1b).

Ras-GTP = assay: Determination of Ras-GTP by GST-RBD pull-down assay and Western immunoblotting; format: cell-based, human; conditions: OVCAR-3 cells; for reduction in Ras-GTP: 24 h
Method: as §1, §2

[3] = FTS alone, concentration not given

## CC(C)=CCC/C(C)=C/CC/C(C)=C/CSc1ccccc1C(=O)O [FTS, farnesylthiosalicylic acid]
OVCAR-3 cells [1]; Homo sapiens, OVCAR-3, read-out: IC50 (concentration causing 50% inhibition of cell growth)
  IC50: 54 µM
OVCAR-3 cells [1]; OVCAR-3 cultures, 7 days with 25 or 50 μM FTS
  foci formation and growth: strongly inhibited
OVCAR-3 cells [2]
  inhibition at 50 µM: 45%
Ras; 25 μM FTS
  reduction in Ras: 5%
Ras; 50 μM FTS
  reduction in Ras: 39%
Ras; [3]
  Ras reduced (summary statement): 40%
Ras-GTP; 25 μM FTS
  reduction in Ras-GTP: 19%
Ras-GTP; 50 μM FTS
  reduction in Ras-GTP: 41%
Ras-GTP; [3]
  Ras-GTP reduced (summary statement): 40%
